Tested on: colorectal tissue transcripts
Assay: SAGE of normal, adenoma and cancer colorectal tissue (transcript tag counts)
Set-up: species or system human
From the text: In an effort to identify potential molecular markers of early colorectal tumors, we have here analyzed gene expression in benign and malignant colorectal tumors in an unbiased and comprehensive fashion. We used SAGE to analyze global gene expression in normal, benign and malignant colorectal tissue. SAGE is a gene expression profiling method that associates individual mRNA transcripts with 15-base tags derived from specific positions near their 3′ termini (3). The abundance of each tag provides a quantitative measure of the transcript level present within the mRNA population studied. SAGE is not dependent on pre-existing databases of expressed genes, and therefore provides an unbiased view of gene expression profiles. For the current study, SAGE libraries derived from two samples of normal colonic epithelium, two colorectal adenomas, and two colorectal cancers were analyzed.
SAGE. For the initial SAGE^3 of benign tumors, fresh adenomas were obtained from surgical specimens derived from FAP patients. Adenomas from FAP patients were employed because of the ready availability of small lesions and the certainty of inactivation of the APC pathway which initiates the formation of the majority of sporadic tumors. After histopathological verification of the neoplastic nature of the lesion (>70% neoplastic cells), total RNA was isolated by solubilizing the tissue in RNAgents Lysis Buffer (Promega, Madison, Wis.) followed by ultracentrifugation over a cesium chloride gradient. mRNA selection was performed from the purified total RNA using oligo(dT) cellulose (Life Technologies, Gaithersburg, Md.). […] Tags were extracted from the raw sequence data and, after excluding repeated ditags, linker sequences, and tags from the polyrnorphic Major Histocompatibility loci, the resulting tag libraries were compared and statistical analysis performed using SAGE software, version 4.0. Data from the libraries are publicly available at the Uniform Resource Locator (URL) address for the http file type found on the www host server that has a domain name of ncbi.nlm.nih.gov, and a path to the directory SAGE, and detailed SAGE protocols are available at the Uniform Resource Locator (URL) address for the http file type found on the www host server that has a domain name of sagenet.org, and file name of sage_protocol.htn.

[1] = normal colorectal tissue library 1
[2] = normal colorectal tissue library 2

Row | Sequence | AD1 (SAGE tag count) (SAGE library AD1) | AD2 (SAGE tag count) (SAGE library AD2) | CA1 (SAGE tag count) (SAGE library CA1) | CA2 (SAGE tag count) (SAGE library CA2) | NC1 (SAGE tag count) (SAGE library NC1) | NC2 (SAGE tag count) (SAGE library NC2) | AD1 (SAGE tag count) (adenoma library 1) | AD2 (SAGE tag count) (adenoma library 2) | CA1 (SAGE tag count) (cancer library 1) | CA2 (SAGE tag count) (cancer library 2) | NC1 (SAGE tag count) [1] | NC2 (SAGE tag count) [2]
1 | ACCTGCATCC (chemistry not fully specified) | 0 | 0 | 0 | 0 | 0 | 12 |  |  |  |  |  | 
2 | ATTGGAGTGC (chemistry not fully specified) | 15 | 36 | 37 | 19 | 136 | 85 |  |  |  |  |  | 
3 | TCTGAATTAT (chemistry not fully specified) |  |  |  |  |  |  | 0 | 0 | 1 | 0 | 24 | 16
4 | GCTCTTCCCC (chemistry not fully specified; the letters are possibly those of the target site) | 1 | 2 | 2 | 0 | 9 | 21 |  |  |  |  |  | 
5 | ATATAATCTG (chemistry not fully specified) | 1 | 4 | 5 | 5 | 18 | 14 |  |  |  |  |  | 
6 | AGAATAGCTT (chemistry not fully specified) | 3 | 9 | 11 | 30 | 44 | 67 |  |  |  |  |  | 
7 | CCAAAGCTAT (chemistry not fully specified) | 14 | 12 | 6 | 11 | 42 | 16 |  |  |  |  |  | 
8 | TTTTTACTGA (chemistry not fully specified) |  |  |  |  |  |  | 10 | 10 | 8 | 1 | 32 | 19
9 | GATGAATCCG (chemistry not fully specified) | 2 | 2 | 1 | 2 | 12 | 14 |  |  |  |  |  | 
10 | ATGTGCGTGG (chemistry not fully specified) | 11 | 3 | 7 | 7 | 38 | 8 |  |  |  |  |  | 
11 | TGCCGCCCGC (chemistry not fully specified) |  |  |  |  |  |  | 2 | 2 | 1 | 0 | 14 | 5
12 | GGCTCGGGAT (chemistry not fully specified) | 2 | 4 | 3 | 5 | 15 | 11 |  |  |  |  |  | 
13 | TTCTGTAGCC (chemistry not fully specified) |  |  |  |  |  |  | 4 | 2 | 4 | 2 | 13 | 23
14 | GGGAAGCAGA (chemistry not fully specified) | 18 | 4 | 8 | 9 | 32 | 17 |  |  |  |  |  | 
15 | CCCGCCTCTT (chemistry not fully specified) | 3 | 3 | 16 | 1 | 0 | 40 |  |  |  |  |  | 
16 | CCCCCGCGGA (chemistry not fully specified) | 6 | 11 | 4 | 12 | 33 | 25 |  |  |  |  |  | 

Row | Sequence | AD1 (SAGE tag count) (SAGE library AD1) | AD2 (SAGE tag count) (SAGE library AD2) | CA1 (SAGE tag count) (SAGE library CA1) | CA2 (SAGE tag count) (SAGE library CA2) | NC1 (SAGE tag count) (SAGE library NC1) | NC2 (SAGE tag count) (SAGE library NC2) | AD1 (SAGE tag count) (adenoma library 1) | AD2 (SAGE tag count) (adenoma library 2) | CA1 (SAGE tag count) (cancer library 1) | CA2 (SAGE tag count) (cancer library 2) | NC1 (SAGE tag count) [1] | NC2 (SAGE tag count) [2]
17 | CTGGATCTGG (chemistry not fully specified; the letters are possibly those of the target site) | 3 | 9 | 5 | 10 | 21 | 21 |  |  |  |  |  | 
18 | GTCATCACCA (chemistry not fully specified; the letters are possibly those of the target site) | 0 | 0 | 0 | 0 | 35 | 22 |  |  |  |  |  | 
19 | ACAGGGTGAC (chemistry not fully specified) | 1 | 8 | 7 | 6 | 25 | 13 |  |  |  |  |  | 
20 | GCCCAGGGCC (chemistry not fully specified; the letters are possibly those of the target site) | 2 | 1 | 2 | 1 | 4 | 44 |  |  |  |  |  | 
21 | CCTGCTTGTC (chemistry not fully specified) | 0 | 3 | 0 | 5 | 20 | 23 |  |  |  |  |  | 
22 | TACGGTGTGG (chemistry not fully specified) |  |  |  |  |  |  | 2 | 2 | 1 | 0 | 7 | 13
23 | TTGGACCTGG (chemistry not fully specified) |  |  |  |  |  |  | 7 | 18 | 12 | 16 | 33 | 31
24 | CTTATGGTCC (chemistry not fully specified) | 0 | 1 | 1 | 0 | 36 | 11 |  |  |  |  |  | 
25 | GCCACATACT (chemistry not fully specified) | 0 | 0 | 0 | 0 | 3 | 9 |  |  |  |  |  | 
26 | TCACAGTGCC (chemistry not fully specified) |  |  |  |  |  |  | 3 | 1 | 3 | 4 | 26 | 7
27 | GACCAGCCCA (chemistry not fully specified) | 3 | 2 | 12 | 5 | 23 | 21 |  |  |  |  |  | 
28 | ATGTGGGCTC (chemistry not fully specified) | 0 | 0 | 0 | 0 | 7 | 2 |  |  |  |  |  | 
29 | AAGAAGCAGG (chemistry not fully specified; the letters are possibly those of the target site) | 3 | 4 | 1 | 3 | 8 | 16 |  |  |  |  |  | 
30 | ATCGTGGCGG (chemistry not fully specified) | 19 | 25 | 20 | 10 | 193 | 92 |  |  |  |  |  | 
31 | CTGAACCTCC (chemistry not fully specified) | 2 | 0 | 0 | 0 | 5 | 15 |  |  |  |  |  | 
32 | TCACCGGTCA (chemistry not fully specified) |  |  |  |  |  |  | 10 | 10 | 5 | 6 | 118 | 75

— US8029764B2, “Methods for detection of colorectal cancer” (The Johns Hopkins University, priority 2001, dated 2011)
